From ChEMBL document CHEMBL1201862, “PubChem BioAssay data set” (2004)
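Test compounds were applied to cells in 96-well plates for 48 hours at 5 doses. GI50 marks 50% less growth.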 Calls of active or inactive are those of the source. No stated cut-off is given here; in the data, active = GI50 up to about 1.1 µM and inactive = higher.

Legend:
Assay in all cases: DTP human tumour cell line panel, 48 h
[1] = tested on: KM-20L2
[2] = tested on: XF498
[3] = tested on: SNB-78
[4] = tested on: LXFL 529
[5] = tested on: DMS-114
[6] = tested on: RXF 631
[7] = tested on: DLD-1
[8] = tested on: M19-MEL
[9] = tested on: HOP-18

Measured: GI50

O=c1cc(O)cc2n1CCC2
inactive: [1] > 100 µM | [2] > 100 µM | [3] > 100 µM | [4] > 100 µM | [5] > 100 µM | [6] > 100 µM | [7] > 100 µM

COC(=O)/C(=N\NC(N)=O)C(C(=O)C(=O)Nc1ccccc1C(=O)OC)c1nc2ccc(C(=O)c3ccccc3)cc2nc1O (configuration not stated)
inactive: [1] > 100 µM | [2] > 100 µM | [3] > 100 µM | [4] > 100 µM | [5] > 100 µM | [8] > 100 µM | [6] > 100 µM | [7] > 100 µM | [9] > 100 µM

COc1ccc(/C(=N\NC(=O)C(=O)NN)C(c2ccc(OC)cc2)C2(O)C(=O)Nc3ccccc32)cc1 (configuration not stated)
inactive: [1] > 100 µM | [2] 29.6 µM | [3] > 100 µM | [4] 29 µM | [5] 64.3 µM | [8] > 100 µM | [6] > 100 µM | [7] 51.4 µM

O=C1C2C3CC4C5C3C1C5C1(SCCS1)C42 (configuration not stated)
inactive: [1] > 100 µM | [3] > 100 µM | [4] > 100 µM | [5] > 100 µM | [8] > 100 µM | [7] > 100 µM | [9] > 100 µM

Cc1ccccc1C(=O)Oc1ccc(O)cc1
inactive: [1] > 100 µM | [3] > 100 µM | [8] > 100 µM | [6] > 100 µM | [7] > 100 µM | [9] > 100 µM

CCOC(=O)C(=O)Nc1cccc(Cl)c1C
inactive: [2] 49.8 µM | [3] > 100 µM | [4] > 100 µM | [5] > 100 µM | [8] > 100 µM | [6] > 100 µM | [7] > 100 µM | [9] > 100 µM

N#CCCN(c1ccc(C=O)cc1)S(=O)(=O)c1ccccc1
inactive: [1] > 100 µM | [2] > 100 µM | [4] > 100 µM | [5] > 100 µM | [8] > 100 µM

Cn1c(=O)nc2n(-c3ccc(Cl)cc3)c3ccc(Cl)cc3nc-2c1=O
inactive: [1] 4.88 µM | [3] 14.8 µM

CCN(CC)CCn1c2c3ccccc3ccc2c2oc(=O)c3ccccc3c21
inactive: [1] > 100 µM | [2] > 100 µM | [3] > 100 µM | [4] > 100 µM | [5] > 100 µM | [8] > 100 µM | [6] > 100 µM | [7] > 100 µM | [9] > 100 µM

COc1ccc(N2C(=O)[C@H]3CC(C)c4c([nH]c5ccccc45)[C@H]3C2=O)cc1 (some centres not stated)
inactive: [1] 2.99 µM | [2] 4.76 µM | [3] 5.08 µM | [4] 4.14 µM | [5] 2.01 µM | [8] 2.13 µM | [7] 3.54 µM

CCN(CC)CCNC(=O)c1ccccc1NC(=O)C(=O)Nc1ccccc1C(=O)NCCN(CC)CC
inactive: [1] 37.7 µM | [3] > 100 µM | [5] 32.2 µM | [8] 22.8 µM | [6] > 100 µM | [7] 63.4 µM | [9] > 100 µM

O=C(Nc1ccc(C(F)(F)F)cc1[N+](=O)[O-])C(=O)C(C(=O)c1ccc2ccccc2c1)C1OC(=O)c2ccccc21 (configuration not stated)
inactive: [1] 20.6 µM | [3] 10.1 µM | [4] 5.18 µM | [5] 8.71 µM | [8] 8.89 µM | [7] 6.9 µM

COc1cc2ccc3c4cc(OC)c(OC)cc4c[n+](C)c3c2cc1O
inactive: [1] > 100 µM | [2] 24.7 µM | [3] > 100 µM | [4] 12.6 µM | [5] 8.99 µM | [8] > 100 µM | [7] > 100 µM | [9] > 100 µM

CCOC(=O)C(C(=O)c1ccccc1)=C1NCCN1
inactive: [1] > 100 µM | [2] > 100 µM | [4] > 100 µM | [8] > 100 µM | [6] > 100 µM | [7] > 100 µM | [9] 4.06 µM

COS(=O)(=O)OCCC(NC(=O)OCc1ccccc1)C(=O)OCc1ccccc1 (configuration not stated)
inactive: [1] > 100 µM | [3] > 100 µM | [4] > 100 µM | [5] > 100 µM | [8] > 100 µM | [7] > 100 µM | [9] > 100 µM

O=C(N/N=C/c1cccc(O)c1O)N/N=C/c1cccc(O)c1O
inactive: [1] 29.3 µM | [2] 19.1 µM | [3] 34.8 µM | [4] 16.7 µM | [5] > 100 µM | [8] 22.4 µM | [9] 19.2 µM

O=c1cc(-c2ccccc2)c2cc3c(=O)ccoc3cc2o1
inactive: [1] > 100 µM | [2] > 100 µM | [5] 83 µM | [8] > 100 µM | [7] 77.4 µM

FC(F)(F)c1ccc(/C=N/C23CC4CC(CC(C4)C2)C3)cc1
inactive: [1] > 100 µM | [3] > 100 µM | [5] > 100 µM

COc1cc(-c2ccc(NC(=O)SCCC(=O)O)cc2OC)ccc1NC(=O)SCCC(=O)O
inactive: [1] > 100 µM | [2] 74.3 µM | [3] > 100 µM | [4] > 100 µM | [5] > 100 µM | [8] > 100 µM

CCCCNC(=O)NNC(=O)c1cc(/C=C/c2cccc([N+](=O)[O-])c2)ncn1
inactive: [1] > 100 µM | [2] > 100 µM | [3] > 100 µM | [4] > 10 µM | [5] 51.3 µM | [8] > 100 µM | [6] > 100 µM | [7] 37.7 µM | [9] > 100 µM

CCN1N=CSC12C(=O)N(c1ccccc1)C(=O)N2c1ccccc1 (configuration not stated)
inactive: [1] > 100 µM | [2] 32.7 µM | [3] > 100 µM | [4] > 100 µM | [5] 57.8 µM | [6] > 100 µM | [7] > 100 µM | [9] > 100 µM

CC(C)(C)C1CCC(=O)C(C(O)CC2CC(=O)N(c3ccccc3)C(=O)C2)C1 (configuration not stated)
inactive: [1] > 100 µM | [2] > 100 µM | [3] > 100 µM | [4] > 100 µM | [5] > 100 µM | [8] > 100 µM | [6] 56.8 µM | [7] > 100 µM | [9] > 100 µM

COc1ccc(C2Cc3cc(OC)c(OC)c(OC)c3C2=O)cc1 (configuration not stated)
inactive: [1] > 100 µM | [2] 2 µM | [3] > 100 µM | [5] 76.6 µM | [8] > 100 µM | [7] > 100 µM | [9] > 100 µM
